By IC50 is commonly meant the midpoint of a concentration-inhibition curve. Read a low IC50 as higher potency.

The results in this text go back to patent US20260297083A1, “SUBSTITUTED ACETYLENE COMPOUND DERIVATIVES AND THEIR PHARMACEUTICAL USE” (AVELOS THERAPEUTICS INC., priority 2023, published 2026).

Molecules are shown by their SMILES.

This experiment has as its system DLD-1 BRCA2(−/−) Cell. Description: Cell viability assay (Resazurin) in DLD1-BRCA2 cells. The note with it: Homo sapiens, DLD-1, 336 h, 14 days, 1,500 cells/well, final DMSO 1%. It counts as cell-based. Here is the method: DLD1-BRCA2 KG (Horizon Discovery, Cat #HD 105-007) cells and DLD1-parental cells were maintained in culture media (RPMI-1640 including 2 mM L-glutamin and 25 mM sodium bicarbonate, supplemented with 10% FBS), at 37° C. in a humidified atmosphere with 5% CO2. Cells were seeded at the final concentration of 1,500 cells/well (DLD1-BRCA2 KG) and 600 cells/well (DLD1-parental) in a 96-well plate. Four hours later, test compounds were added (the final concentration of DMSO was 1%) to the cells and media were replaced every 3-4 days for 14 days. To measure viability, cells were incubated in culture media supplemented with 0.1 mg/ml of Resazurin (Merck, Cat #R7017) for 4 hours. The fluorescence was measured at Ex/Em=560 nm/590 nm using EnSight multimode plate reader (Perkin Elmer). Data analysis and IC50 calculation was done using GraphPad Prism (Version 10.0.2).
As for `Cc1cc(C(F)(F)F)cc(N2C(=O)CC[C@H]2C(=O)N(CC#Cc2ccc(C(N)=O)nc2)c2ccc(F)c(C)c2)n1` [Example 12, (S)-5-(3-(N-(4-fluoro-3-methyl-phenyl)-1-(6-methyl-4-(trifluoro-methyl)pyridin-2-yl)-5-oxo-pyrrolidine-2-carboxamido)prop-1-yn-1-yl)picolinamide], the IC50 was under 1000 nM.

With `CCN1CCN(CC#CCN(C(=O)[C@@H]2CCC(=O)N2c2cc(C(F)(F)F)cc(C)n2)c2ccc(F)c(C)c2F)CC1` [Example 13, (S)—N-(2,4-difluoro-3-methylphenyl)-N-(4-(4-ethylpiperazin-1-yl)but-2-yn-1-yl)-1-(6-methyl-4-(trifluoromethyl)pyridin-2-yl)-5-oxopyrrolidine-2-carboxamide], the IC50 fell in the range of 1100 to 5000 nM.

As for `Cc1cc(C(F)(F)F)cc(N2C(=O)CC[C@H]2C(=O)N(CC#CCN2CCOCC2)c2ccc(F)c(C)c2F)n1` [Example 14, (S)—N-(2,4-difluoro-3-methylphenyl)-1-(6-methyl-4-(trifluoromethyl)pyridin-2-yl)-N-(4-morpholinobut-2-yn-1-yl)-5-oxopyrrolidine-2-carboxamide], the IC50 lay within 1100 to 5000 nM.

Compound `Cc1cc(C(F)(F)F)cc(N2C(=O)CC[C@H]2C(=O)N(CC#CCN2CCN(c3cnccn3)CC2)c2ccc(F)c(C)c2F)n1` [Example 15, (S)—N-(2,4-difluoro-3-methylphenyl)-1-(6-methyl-4-(trifluoromethyl)pyridin-2-yl)-5-oxo-N-(4-(4-(pyrazin-2-yl)piperazin-1-yl)but-2-yn-1-yl)pyrrolidine-2-carboxamide] had an IC50 of 1100 to 5000 nM.

Turning to `Cc1cc(C(F)(F)F)cc(N2C(=O)CC[C@H]2C(=O)N(CC#CCN2CCN(c3ncccn3)CC2)c2ccc(F)c(C)c2F)n1` [Example 16, (S)—N-(2,4-difluoro-3-methylphenyl)-1-(6-methyl-4-(trifluoromethyl)pyridin-2-yl)-5-oxo-N-(4-(4-(pyrimidin-2-yl)piperazin-1-yl)but-2-yn-1-yl)pyrrolidine-2-carboxamide], the IC50 was in the range of 1100 to 5000 nM.

`Cc1cc(C(F)(F)F)cc(N2[C@H](C(=O)N(CC#Cc3cnc(N)cn3)c3ccc(F)c(C)c3F)CCS2(=O)=O)n1` [Example 17, (S)—N-(3-(5-aminopyrazin-2-yl)prop-2-yn-1-yl)-N-(2,4-difluoro-3-methylphenyl)-2-(6-methyl-4-(trifluoromethyl)pyridin-2-yl)isothiazolidine-3-carboxamide 1,1-dioxide] showed an IC50 of under 1000 nM.

As to `Cc1cc(C(F)(F)F)cc(N2[C@H](C(=O)N(CC#Cc3ccc(N)nn3)c3ccc(F)c(C)c3)CCS2(=O)=O)n1` [Example 18, (S)-N-(3-(6-aminopyridazin-3-yl)prop-2-yn-1-yl)-N-(4-fluoro-3-methylphenyl)-2-(6-methyl-4-(trifluoromethyl)pyridin-2-yl)isothiazolidine-3-carboxamide 1,1-dioxide], the IC50 is under 1000 nM.

In the case of `Cc1cc(C(F)(F)F)cc(N2[C@H](C(=O)N(CC#Cc3ccc(NC(C)C)nn3)c3ccc(F)c(C)c3)CCS2(=O)=O)n1` [Example 20], the IC50 is under 1000 nM.

For the compound `Cc1cc(C(F)(F)F)cc(N2[C@H](C(=O)N(CC#Cc3ccc(NC(C)C)nn3)c3ccc(F)c(C)c3F)CCS2(=O)=O)n1` [Example 21, (S)-N-(2,4-difluoro-3-methylphenyl)-N-(3-(6-(isopropylamino)pyridazin-3-yl)prop-2-yn-1-yl)-2-(6-methyl-4-(trifluoromethyl)pyridin-2-carboxamide 1,1-dioxideyl)isothiazolidine-3-carboxamide 1,1-dioxide], the IC50 is under 1000 nM.

On to `CC(=O)Nc1ccc(C#CCN(C(=O)[C@@H]2CCS(=O)(=O)N2c2cc(C(F)(F)F)cc(C)n2)c2ccc(F)c(C)c2)nn1` [Example 22, (S)-N-(3-(6-acetamidopyridazin-3-yl)prop-2-yn-1-yl)-N-(4-fluoro-3-methylphenyl)-2-(6-methyl-4-(trifluoromethyl)pyridin-2-yl)isothiazolidine-3-carboxamide 1,1-dioxide], for which the IC50 lay in the range of 1100 to 5000 nM.

Regarding `Cc1cc(C(F)(F)F)cc(N2[C@H](C(=O)N(CC#Cc3ccc(N4CCOCC4)nn3)c3ccc(F)c(C)c3)CCS2(=O)=O)n1` [Example 23, (S)-N-(4-fluoro-3-methylphenyl)-2-(6-methyl-4-(trifluoromethyl)pyridin-2-yl)-N-(3-(6-morpholinopyridazin-3-yl)prop-2-yn-1-yl)isothiazolidine-3-carboxamide 1,1-dioxide], the IC50 fell in the range of 1100 to 5000 nM.

On to `CCN1CCN(c2ccc(C#CCN(C(=O)[C@@H]3CCS(=O)(=O)N3c3cc(C(F)(F)F)cc(C)n3)c3ccc(F)c(C)c3)nn2)CC1` [Example 24, (S)-N-(3-(6-(4-ethylpiperazin-1-yl)pyridazin-3-yl)prop-2-yn-1-yl)-N-(4-fluoro-3-methylphenyl)-2-(6-methyl-4-(trifluoromethyl)pyridin-2-yl)isothiazolidine-3-carboxamide 1,1-dioxide], for which the IC50 is under 1000 nM.

For the compound `CCN(CC)c1ccc(C#CCN(C(=O)[C@@H]2CCS(=O)(=O)N2c2cc(C(F)(F)F)cc(C)n2)c2ccc(F)c(C)c2)nn1` [Example 25, (S)-N-(3-(6-(diethylamino)pyridazin-3-yl)prop-2-yn-1-yl)-N-(4-fluoro-3-methylphenyl)-2-(6-methyl-4-(trifluoromethyl)pyridin-2-yl)isothiazolidine-3-carboxamide 1,1-dioxide], the IC50 was in the range of 1100 to 5000 nM.

For the compound `Cc1cc(C(F)(F)F)cc(N2[C@H](C(=O)N(CC#Cc3ccc(=O)[nH]n3)c3ccc(F)c(C)c3)CCS2(=O)=O)n1` [Example 26, (S)-N-(4-fluoro-3-methylphenyl)-2-(6-methyl-4-(trifluoromethyl)pyridin-2-yl)-N-(3-(6-oxo-1,6-dihydropyridazin-3-yl)prop-2-yn-1-yl)isothiazolidine-3-carboxamide 1,1-dioxide], the IC50 is under 1000 nM.

In turn, `COc1ccc(C#CCN(C(=O)[C@@H]2CCS(=O)(=O)N2c2cc(C(F)(F)F)cc(C)n2)c2ccc(F)c(C)c2)nn1` [Example 27, (S)-N-(4-fluoro-3-methylphenyl)-N-(3-(6-methoxypyridazin-3-yl)prop-2-yn-1-yl)-2-(6-methyl-4-(trifluoromethyl)pyridin-2-yl)isothiazolidine-3-carboxamide 1,1-dioxide] returned an IC50 of under 1000 nM.

On to `Cc1cc(C(F)(F)F)cc(N2[C@H](C(=O)N(CC#Cc3ccc(OC(F)F)nn3)c3ccc(F)c(C)c3)CCS2(=O)=O)n1` [Example 28, (S)-N-(3-(6-(difluoromethoxy)pyridazin-3-yl)prop-2-yn-1-yl)-N-(4-fluoro-3-methylphenyl)-2-(6-methyl-4-(trifluoromethyl)pyridin-2-yl)isothiazolidine-3-carboxamide 1,1-dioxide], for which the IC50 was under 1000 nM.

Consider `Cc1cc(C(F)(F)F)cc(N2[C@H](C(=O)N(CC#Cc3ccc(C(N)=O)nn3)c3ccc(F)c(C)c3)CCS2(=O)=O)n1` [Example 29], for which the IC50 is under 1000 nM.

`Cc1cc(C(F)(F)F)cc(N2[C@H](C(=O)N(CC#Cc3cnc(N)cn3)c3ccc(F)c(C)c3)CCS2(=O)=O)n1` [Example 30, (S)-N-(3-(5-aminopyrazin-2-yl)prop-2-yn-1-yl)-N-(4-fluoro-3-methylphenyl)-2-(6-methyl-4-(trifluoromethyl)pyridin-2-yl)isothiazolidine-3-carboxamide 1,1-dioxide]: the IC50 was 1100 to 5000 nM.

As to `Cc1cc(C(F)(F)F)cc(N2[C@@H](C(=O)N(CC#Cc3cnc(N)cn3)c3ccc(F)c(C)c3F)CCS2(=O)=O)n1` [Example 31, (R)-N-(3-(5-aminopyrazin-2-yl)prop-2-yn-1-yl)-N-(2,4-diffuoro-3-methylphenyl)-2-(6-methyl-4-(trifluoromethyl)pyridin-2-yl)isothiazolidine-3-carboxamide 1,1-dioxide], the IC50 was over 5100 nM.

Take `Cc1ccc(F)c(N(CC#Cc2cnc(N)cn2)C(=O)[C@@H]2CCS(=O)(=O)N2c2cc(C(F)(F)F)cc(C)n2)c1` [Example 33, (S)-N-(3-(5-aminopyrazin-2-yl)prop-2-yn-1-yl)-N-(2-fluoro-5-methylphenyl)-2-(6-methyl-4-(trifluoromethyl)pyridin-2-yl)isothiazolidine-3-carboxamide 1,1-dioxide]: the IC50 is under 1000 nM.

`CC(=O)Nc1cnc(C#CCN(C(=O)[C@@H]2CCS(=O)(=O)N2c2cc(C(F)(F)F)cc(C)n2)c2ccc(F)c(C)c2)cn1` [Example 34, (S)-N-(3-(5-acetamidopyrazin-2-yl)prop-2-yn-1-yl)-N-(4-fluoro-3-methylphenyl)-2-(6-methyl-4-(trifluoromethyl)pyridin-2-yl)isothiazolidine-3-carboxamide 1,1-dioxide] had an IC50 of 1100 to 5000 nM.

On to `Cc1cc(C(F)(F)F)cc(N2[C@H](C(=O)N(CC#Cc3cnc(NC(N)=O)cn3)c3ccc(F)c(C)c3)CCS2(=O)=O)n1` [Example 35, (S)-N-(4-fluoro-3-methylphenyl)-2-(6-methyl-4-(trifluoromethyl)pyridin-2-yl)-N-(3-(5-ureidopyrazin-2-yl)prop-2-yn-1-yl)isothiazolidine-3-carboxamide 1,1-dioxide], for which the IC50 lay in the range of 1100 to 5000 nM.

In turn, `Cc1cc(C(F)(F)F)cc(N2[C@H](C(=O)N(CC#Cc3cnc(NC(C)C)cn3)c3ccc(F)c(C)c3)CCS2(=O)=O)n1` [Example 36, (S)-N-(4-fluoro-3-methylphenyl)-N-(3-(5-(isopropylamino)pyrazin-2-yl)prop-2-yn-1-yl)-2-(6-methyl-4-(trifluoromethyl)pyridin-2-yl)isothiazolidine-3-carboxamide 1,1-dioxide] returned an IC50 of under 1000 nM.
